# pIC50: −log10 of the molar value. No end group written: not given here.
# Assays:
# [1] = system: normal melanocytes in AAD^+tyrosinase^+ (or AAD^−) C57BL/6 mice; details: mouse, in vivo
# HLA-A*0201 = HLA-A*0201 (Homo sapiens, UniProt P04439, D140Y/D185E/D98H/E176V/E277Q/G131W/G231S/I119V/I121R/I166T/I218V/L300P/L318F/N151K/N90K/P208A/P217A/Q86G/Q94H/R138H/R169H/T345S); assay: Class I peptide binding affinity assay
Compound,"vitiligo, in words [1]",pIC50 (HLA-A*0201)
"IL-2: Proleukin (IL-2; Chiron), given alone without CTLs",vitiligo was not observed,–
FMDGTMSQV [FMDGTMSQV],–,7.19
CSCC[C@H](NC(=O)[C@@H](NC(=O)CNC(=O)[C@H](CC(=O)O)NC(=O)[C@H](CCSC)NC(=O)[C@@H](N)Cc1ccc(O)cc1)[C@@H](C)O)C(=O)N[C@@H](CO)C(=O)N[C@@H](CCC(N)=O)C(=O)N[C@H](C(=O)O)C(C)C [YMDGTMSQV],–,7.13
